Test results taken from patent US11286255B2, “Pyridone carboxylic acid derivative or salt thereof” (WAKUNAGA PHARMACEUTICAL CO., LTD., priority 2017, dated 2022).

Test system: NCI-H460 (human non-small cell lung cancer cell line)
Assay: In vitro cell growth inhibition test against NCI-H460
Assay type: cell-based
Conditions: 72 h, NCI-H460 cells, 3 days culture, WST-8 (Cell Counting Kit-8), 50% growth inhibition concentration
Experimental: Test Example 1: In Vitro Cell Growth Inhibition Test Against NCI-H460 (Human Non-Small Cell Lung Cancer Cell Line)
An NCI-H460 cell suspension was inoculated at 4×10^3 cells/100 μL/well (0.1 mL) to a 96-well flat-bottomed multiplate using RPMI-1640 (Sigma-Aldrich Co. LLC, R8758) medium containing 10% […] (fetal bovine serum, Thermo Fisher Scientific Inc.), and cultured at 37° C. for 1 day in an incubator containing 5% carbon dioxide. The compound of the present invention was dissolved at a concentration of 1 mM in dimethyl sulfoxide and further diluted into 5.00, 2.50, 1.25, 0.63, 0.31, 0.16, 0.078, and 0.039 μM (final concentrations) using dimethyl sulfoxide and RPMI-1640 medium. Each of these dilutions was added at 0.1 mL/well to the culture plate of the NCI-H460 cells mentioned above after removal of the medium, and the cells were cultured at 37° C. for 3 days in an incubator containing 5% carbon dioxide.
After the culture, Cell Counting Kit-8 (Dojindo Laboratories), which adopts WST-8 [2-(2-methoxy-4-nitrophenyl)-3-(4-nitrophenyl)-5-(2,4-disulfophenyl)-2H-tetrazolium monosodium salt] as a chromogenic substrate, was added at 10 μL/well, and the cells were cultured under the same conditions as above for 1 hour, followed by measurement of absorbance at 450 nm. A cell survival rate was calculated in terms of 50% growth inhibition concentration (IC50 (μM)) by the least square method with that of a control group defined as 100%.

Compound | IC50
CCOCC(COCC)NC(=O)C1CN(c2cc(C)c3c(=O)c(C(=O)O)cn(-c4nccs4)c3n2)C1 [Example 006, 7-{3-[(1,3-Diethoxypropan-2-yl)carbamoyl]azetidin-1-yl}-5-methyl-4-oxo-1-(1,3-thiazol-2-yl)-1,4-dihydro-1,8-naphthyridine-3-carboxylic acid] | 110 nM
CC(=O)C1CN(c2cc(C)c3c(=O)c(C(=O)O)cn(-c4nccs4)c3n2)C1 [Example 020, 7-(3-Acetylazetidin-1-yl)-5-methyl-4-oxo-1-(1,3-thiazol-2-yl)-1,4-dihydro-1,8-naphthyridine-3-carboxylic acid] | 340 nM
O=C(O)c1cn(-c2nccs2)c2nc(N3CC(C(=O)Nc4ccccn4)C3)c(F)cc2c1=O [Example 083, 6-Fluoro-4-oxo-7-{3-[(pyridin-2-yl)carbamoyl]azetidin-1-yl}-1-(1,3-thiazol-2-yl)-1,4-dihydro-1,8-naphthyridine-3-carboxylic acid] | 190 nM
O=C(O)c1cn(-c2nccs2)c2nc(N3CC(C(=O)NCC4CCCCO4)C3)c(F)cc2c1=O (centres unmarked) [Example 173, 6-Fluoro-7-{3-[(oxan-2-ylmethyl)carbamoyl]azetidin-1-yl}-4-oxo-1-(1,3-thiazol-2-yl)-1,4-dihydro-1,8-naphthyridine-3-carboxylic acid] | 260 nM
COCC(COC)NC(=O)C1CN(c2cc(C)c3c(=O)c(C(=O)O)cn(-c4nccs4)c3n2)C1 [Example 243, 7-{3-[(1,3-Dimethoxypropan-2-yl)carbamoyl]azetidin-1-yl}-5-methyl-4-oxo-1-(1,3-thiazol-2-yl)-1,4-dihydro-1,8-naphthyridine-3-carboxylic acid] | 220 nM
CCONC1CN(c2cc(C)c3c(=O)c(C(=O)O)cn(-c4ncns4)c3n2)C1 [Example 541, 7-[3-(Ethoxyamino)azetidin-1-yl]-5-methyl-4-oxo-1-(1,2,4-thiadiazol-5-yl)-1,4-dihydro-1,8-naphthyridine-3-carboxylic acid] | 390 nM
O=C(O)c1cn(-c2nccs2)c2nc(N3CC(CNc4ccccn4)C3)c(F)cc2c1=O [Example 561, 6-Fluoro-4-oxo-7-(3-{[(pyridin-2-yl)amino]methyl}azetidin-1-yl)-1-(1,3-thiazol-2-yl)-1,4-dihydro-1,8-naphthyridine-3-carboxylic acid] | 900 nM

More lines, now with the values ahead:

IC50 | Compound
260 nM | CCCn1nc(NC(=O)C2CN(c3nc4c(c(C)c3F)c(=O)c(C(=O)O)cn4-c3ncns3)C2)cc1C [Example 218, 6-Fluoro-5-methyl-7-{3-[(5-methyl-1-propyl-1H-pyrazol-3-yl)carbamoyl]azetidin-1-yl}-4-oxo-1-(1,2,4-thiadiazol-5-yl)-1,4-dihydro-1,8-naphthyridine-3-carboxylic acid]
400 nM | CCOCCNC(=O)C1CN(c2cc(C)c3c(=O)c(C(=O)O)cn(-c4nc(-c5cccnc5)cs4)c3n2)C1 [Example 414, 7-{3-[(2-Ethoxyethyl)carbamoyl]azetidin-1-yl}-5-methyl-4-oxo-1-[4-(pyridin-3-yl)-1,3-thiazol-2-yl]-1,4-dihydro-1,8-naphthyridine-3-carboxylic acid]
160 nM | Cc1c(F)c(N2CC(n3cccn3)C2)nc2c1c(=O)c(C(=O)O)cn2-c1nccs1 [Example 487, 6-Fluoro-5-methyl-4-oxo-7-[3-(1H-pyrazol-1-yl)azetidin-1-yl]-1-(1,3-thiazol-2-yl)-1,4-dihydro-1,8-naphthyridine-3-carboxylic acid]
260 nM | Cc1cnc(C2CN(c3cc(C)c4c(=O)c(C(=O)O)cn(-c5ncns5)c4n3)C2)o1 [Example 489, 5-Methyl-7-[3-(5-methyl-1,3-oxazol-2-yl)azetidin-1-yl]-4-oxo-1-(1,2,4-thiadiazol-5-yl)-1,4-dihydro-1,8-naphthyridine-3-carboxylic acid]
200 nM | Cc1cc(N2CC(c3ccon3)C2)nc2c1c(=O)c(C(=O)O)cn2-c1ncns1 [Example 499, 5-Methyl-7-[3-(1,2-oxazol-3-yl)azetidin-1-yl]-4-oxo-1-(1,2,4-thiadiazol-5-yl)-1,4-dihydro-1,8-naphthyridine-3-carboxylic acid]
190 nM | O=C(O)c1cn(-c2ncns2)c2nc(N3CC(NOCc4ccccc4)C3)c(F)cc2c1=O [Example 549, 7-{3-[(Benzyloxy)amino]azetidin-1-yl}-6-fluoro-4-oxo-1-(1,2,4-thiadiazol-5-yl)-1,4-dihydro-1,8-naphthyridine-3-carboxylic acid]
380 nM | CNOC1CN(c2cc(C)c3c(=O)c(C(=O)O)cn(-c4ncns4)c3n2)C1 [Example 553, 5-methyl-7-{3-[(methylamino)oxy]azetidin-1-yl}-4-oxo-1-(1,2,4-thiadiazol-5-yl)-1,4-dihydro-1,8-naphthyridine-3-carboxylic acid]
210 nM | Cc1ccc(C(=O)NC2CN(c3cc(C)c4c(=O)c(C(=O)O)cn(-c5ncns5)c4n3)C2)nc1 [Example 584, 5-Methyl-7-[3-(5-methylpyridine-2-amido)azetidin-1-yl]-4-oxo-1-(1,2,4-thiadiazol-5-yl)-1,4-dihydro-1,8-naphthyridine-3-carboxylic acid]
410 nM | Cc1ccc(C(=O)NC2CN(c3nc4c(cc3F)c(=O)c(C(=O)O)cn4-c3nccs3)C2)nc1 [Example 586, 6-Fluoro-7-[3-(5-methylpyridine-2-amido)azetidin-1-yl]-4-oxo-1-(1,3-thiazol-2-yl)-1,4-dihydro-1,8-naphthyridine-3-carboxylic acid]

Test system: relapsed/refractory acute myeloid leukemia
Assay: not given
Conditions: overall survival targeting all patients; cited from earlier work

Compound | therapeutic effect in overall survival (primary endpoint) as compared with a placebo group
CNC1CN(c2ccc3c(=O)c(C(=O)O)cn(-c4nccs4)c3n2)CC1OC (centres unmarked) [the compound, 1,4-dihydro-7-(3-methoxy-4-methylamino-1-pyrrolidinyl)-4-oxo-1-(2-thiazolyl)-1,8-naphthyridine-3-carboxylic acid, reference compound] | does not exhibit a significant therapeutic effect
